Assay results reported in patent publication US20240336602A1 (Katholieke Universiteit Leuven, priority 2020, published 2024).
Several values for one entry are separate records, joined by “and”; a condition that tells them apart may be missing. Equal values may be shown once.

These molecules were tested against T1, mouse TRPM3a2 (mTRPM3) ion channel (Mus musculus, UniProt J9SQF3) (assay: TRPM3 ion channel driven Ca2+ uptake, Fluo-4 AM assay (PS-stimulated, overexpressing flip-in HEK293 cells)). Details: PS (50 μM) stimulated Ca2+ influx, HEK293, cpds 300-399.
T1 construct: expressed in transfected cells; host or cells: flip-in HEK293
T1 sequence (J9SQF3 1-1709 isoform J9SQF3-12): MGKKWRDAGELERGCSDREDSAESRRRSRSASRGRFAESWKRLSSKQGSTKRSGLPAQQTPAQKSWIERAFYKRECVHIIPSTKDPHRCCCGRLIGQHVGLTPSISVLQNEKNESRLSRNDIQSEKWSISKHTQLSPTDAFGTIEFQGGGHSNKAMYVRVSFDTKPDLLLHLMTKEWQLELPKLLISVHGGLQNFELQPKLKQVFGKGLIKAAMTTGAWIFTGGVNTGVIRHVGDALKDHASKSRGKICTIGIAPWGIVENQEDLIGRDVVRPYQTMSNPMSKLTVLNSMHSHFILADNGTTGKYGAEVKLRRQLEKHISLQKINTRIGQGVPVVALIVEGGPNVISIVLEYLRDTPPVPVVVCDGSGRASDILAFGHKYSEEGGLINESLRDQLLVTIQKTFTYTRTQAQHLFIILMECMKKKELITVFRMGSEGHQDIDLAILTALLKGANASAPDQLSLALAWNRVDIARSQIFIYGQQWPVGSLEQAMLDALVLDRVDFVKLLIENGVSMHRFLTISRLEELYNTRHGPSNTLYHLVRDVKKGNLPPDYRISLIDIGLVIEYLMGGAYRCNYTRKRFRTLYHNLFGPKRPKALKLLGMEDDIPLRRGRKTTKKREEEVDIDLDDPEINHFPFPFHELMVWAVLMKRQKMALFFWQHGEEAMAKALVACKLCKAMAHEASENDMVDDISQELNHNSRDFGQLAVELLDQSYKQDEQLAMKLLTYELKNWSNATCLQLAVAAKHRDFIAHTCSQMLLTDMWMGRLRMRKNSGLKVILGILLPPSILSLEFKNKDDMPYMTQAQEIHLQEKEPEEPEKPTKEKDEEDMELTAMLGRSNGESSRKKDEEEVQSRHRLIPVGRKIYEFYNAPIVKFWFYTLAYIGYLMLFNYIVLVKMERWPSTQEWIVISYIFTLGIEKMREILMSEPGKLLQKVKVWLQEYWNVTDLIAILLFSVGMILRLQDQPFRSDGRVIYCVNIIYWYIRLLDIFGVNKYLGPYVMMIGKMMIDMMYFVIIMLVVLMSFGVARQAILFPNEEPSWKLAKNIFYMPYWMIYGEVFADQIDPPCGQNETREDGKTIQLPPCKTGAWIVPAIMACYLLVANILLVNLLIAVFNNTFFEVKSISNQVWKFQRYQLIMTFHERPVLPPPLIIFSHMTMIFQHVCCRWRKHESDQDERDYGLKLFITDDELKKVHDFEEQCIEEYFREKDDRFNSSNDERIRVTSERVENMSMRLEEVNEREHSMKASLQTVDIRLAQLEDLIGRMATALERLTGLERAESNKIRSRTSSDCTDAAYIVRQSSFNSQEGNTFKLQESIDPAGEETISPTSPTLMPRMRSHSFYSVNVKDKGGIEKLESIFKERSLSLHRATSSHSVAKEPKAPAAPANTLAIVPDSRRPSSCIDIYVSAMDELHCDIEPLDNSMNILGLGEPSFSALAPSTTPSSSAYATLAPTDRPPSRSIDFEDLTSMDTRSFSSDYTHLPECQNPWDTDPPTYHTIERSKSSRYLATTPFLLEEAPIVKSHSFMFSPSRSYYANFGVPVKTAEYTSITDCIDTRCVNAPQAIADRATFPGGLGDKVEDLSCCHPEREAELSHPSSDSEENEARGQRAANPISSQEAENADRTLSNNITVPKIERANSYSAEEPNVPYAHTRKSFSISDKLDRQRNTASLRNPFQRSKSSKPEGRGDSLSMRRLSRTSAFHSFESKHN
Assay type: cell-based
Procedure: In order to monitor the inhibition of the mouse TRPM3a2 (mTRPM3) ion channel by the compounds of the invention, a cellular system making use of an mTRPM3alpha2 or hTRPM3 overexpressing cell line (flip-in HEK293) was used. The TRPM3 channel was stimulated/opened with Pregnenolone sulfate (PS) (50 μM) which results in Ca^2+ influx.
For mTRPM3, the intracellular Ca^2+ was measured with a Calcium responsive dye, Fluor-4 AM ester (Invitrogen). Cells were cultured until a confluence of 80-90%, washed with Versene (Invitrogen) and detached from the surface by a short incubation with 0.05% Trypsin (Invitrogen). The trypsination process was stopped by the addition of complete cell culture medium (DMEM, glutamax, 10% FCS, NEAA, Pen-Strep). Cells were collected and resuspended in Krebs buffer without Calcium at RT.
Prior the cell seeding (±2000 cells/well into a black, 384 well plate (Greiner)) the diluted compound was added in the assay plate, together with the PS dissolved in Krebs buffer containing Calcium. […] Directly after cell addition the plates were read on an Envision fluorescence reader (Perkin Elmer) by an Excitation of 485 nm and emission at 535 nm.
Channel inhibition was calculated compared to a non-PS stimulated control versus a condition stimulated with PS (50 μM) with vehicle. The ability of the compounds of the invention to inhibit this activity was determined as: Percentage inhibition=[1-((RFU determined for sample with test compound present—RFU determined for sample with positive control inhibitor) divided by (RFU determined in the presence of vehicle—RFU determined for sample with positive control inhibitor))]*100.
`Cc1oc2ccc(OCc3cccnc3O)cc2c1C(=O)NC1COCC1O` (stereo not drawn) [350 - En 1] gave an IC50 of at most 1000 nM.

Same assay, conditions: PS (50 μM) stimulated, cpds. 400-499
Molecule `Cc1ncc(COc2ccc3oc(C)c(C(=O)N[C@@H](CO)c4nc5ccccc5[nH]4)c3c2)s1` [401 - En 1, (R)-N-(1-(1H-benzo[d]imidazol-2-yl)-2-hydroxyethyl)-2-methyl-5-((2-methylthiazol-5-yl)methoxy)benzofuran-3-carboxamide] has an IC50 of at most 1000 nM.
Work on `Cc1ncsc1COc1ccc2oc(C)c(C(=O)NC3CCN(CCOCCO)C3=O)c2c1` (stereo not drawn) [402 - En 1] yielded an IC50 of 1000 to 20000 nM.
In the case of `Cc1ncc(COc2ccc3oc(C)c(C(=O)NC(C)C(N)=O)c3c2)s1` (stereo not drawn) [434 - En 2], the IC50 is reported as at most 1000 nM.
Molecule `Cc1oc2ccc(OCc3ccccn3)cc2c1C(=O)NC(C)C(N)=O` (stereo not drawn) [435 - En 2] has an IC50 of at most 1000 nM.
For `Cc1ncsc1COc1ccc2oc(C)c(C(=O)NC(COC(F)F)C(N)=O)c2c1` (stereo not drawn) [448 - En 1], the IC50 was at most 1000 nM.
Work on `Cc1oc2ccc(OCc3ccccn3)cc2c1C(=O)NC(CO)C(N)=O` (stereo not drawn) [455 - En 2] yielded an IC50 of at most 1000 nM.
With `Cc1ncsc1COc1ccc2oc(C)c(C(=O)NC(CCO)C(N)=O)c2c1` (stereo not drawn) [469 - En 1] the IC50 was at most 1000 nM.

Same assay, conditions: PS (50 μM) stimulated, cpds. 500-599
Molecule `Cc1ncc(COc2ccc3oc(C)c(C(=O)NC4(C(N)=O)CCCOC4)c3c2)s1` (single isomer, unassigned) [590 - En 1] has an IC50 of at most 1000 nM.
Molecule `Cc1ncccc1COc1ccc2oc(C)c(C(=O)NC3(C(N)=O)CCOC3)c2c1` (single isomer, unassigned) [591 - En 1] has an IC50 of at most 1000 nM.
Molecule `Cc1ncccc1COc1ccc2oc(C)c(C(=O)NC3(C(N)=O)CCOC3)c2c1` (single isomer, unassigned) [591 - En 2] has an IC50 of at most 1000 nM.
`Cc1ncc(COc2ccc3oc(C)c(C(=O)NC4(C(N)=O)CCOC4)c3c2)s1` (single isomer, unassigned) [592 - En 1] gave an IC50 of at most 1000 nM.
With `Cc1ncsc1COc1ccc2oc(C)c(C(=O)NC3(C(N)=O)CCOC3)c2c1` (single isomer, unassigned) [593 - En 1] the IC50 was at most 1000 nM.
In the case of `Cc1ccc(COc2ccc3oc(C)c(C(=O)NC4(C(N)=O)CCOC4)c3c2)cn1` (single isomer, unassigned) [594 - En 1], the IC50 is reported as at most 1000 nM.
`Cc1ccc(COc2ccc3oc(C)c(C(=O)NC4(C(N)=O)CCOC4)c3c2)cn1` (single isomer, unassigned) [594 - En 2] showed an IC50 of at most 1000 nM.
`Cc1oc2ccc(OCc3ccccn3)cc2c1C(=O)NC1(C(N)=O)CCOC1` (single isomer, unassigned) [595 - En 1] showed an IC50 of at most 1000 nM.
With `COc1ncccc1COc1ccc2oc(C)c(C(=O)NC3(C(N)=O)CCOC3)c2c1` (single isomer, unassigned) [597 - En 1] the IC50 was at most 1000 nM.
`Cc1oc2ccc(OCc3c(F)cnn3C)cc2c1C(=O)NC1(C(N)=O)CCOC1` (single isomer, unassigned) [598 - En 1] showed an IC50 of at most 1000 nM.
In the case of `Cc1ncc(COc2ccc3oc(C)c(C(=O)NC4(CO)CCNC4=O)c3c2)o1` (stereo not drawn) [515 - En 1], the IC50 is reported as ≤ 1000 nM and 1000 to 20000 nM.
`Cc1ncc(COc2ccc3oc(C)c(C(=O)NC4(CO)CCNC4=O)c3c2)s1` (stereo not drawn) [517 - En 1] showed an IC50 of at most 1000 nM.
`Cc1ncsc1COc1ccc2oc(C)c(C(=O)NCC(C(N)=O)N(C)C)c2c1` (stereo not drawn) [575 - En 1] gave an IC50 of at most 1000 nM.

Same assay, conditions: PS (50 μM) stimulated, cpds. 600-666
In the case of `CNC(=O)C(CO)NC(=O)c1c(C)oc2ccc(OCc3scnc3C)cc12` (single isomer, unassigned) [600 - En 1], the IC50 is reported as at most 1000 nM.
With `CNC(=O)C(CO)NC(=O)c1c(C)oc2ccc(OCc3ccccn3)cc12` (single isomer, unassigned) [601 - En 1] the IC50 was at most 1000 nM.
`CNC(=O)C(CO)NC(=O)c1c(C)oc2ccc(OCc3ccccn3)cc12` (single isomer, unassigned) [601 - En 2] showed an IC50 of at most 1000 nM.
With `Cc1oc2ccc(OCc3cccnc3O)cc2c1C(=O)NC1CNCC1(F)F` (single isomer, unassigned) [640 - En 1] the IC50 was at most 1000 nM.
In the case of `Cc1oc2ccc(OCc3ccnn3C)cc2c1C(=O)NC1COCC1O` (single isomer, unassigned) [655 - En 1], the IC50 is reported as at most 1000 nM.
Molecule `Cc1oc2ccc(OCc3ccnn3C)cc2c1C(=O)NC1COCC1O` (single isomer, unassigned) [655 - En 2] has an IC50 of at most 1000 nM.
Molecule `Cc1oc2ccc(OCc3ccnn3C)cc2c1C(=O)NC1COCC1O` (single isomer, unassigned) [656 - En 1] has an IC50 of 1000 to 20000 nM.
`Cc1oc2ccc(OCc3ccnn3C)cc2c1C(=O)NC1COCC1O` (single isomer, unassigned) [656 - En 2] gave an IC50 of 1000 to 20000 nM.
Molecule `NC(=O)c1oc2ccc(OCc3cccnc3C(F)(F)F)cc2c1C(=O)NC1CCNCC1(F)F` (single isomer, unassigned) [657 - En 1, N3-(3,3-difluoropiperidin-4-yl)-5-((2-(trifluoromethyl)pyridin-3-yl)methoxy)benzofuran-2,3-dicarboxamide] has an IC50 of at least 20000 nM.
For `Cc1oc2ccc(OCc3nccn3C)cc2c1C(=O)NC1COCC1O` (stereo not drawn) [653 - En 1], the IC50 was 1000 to 20000 nM.

Same assay, conditions: PS (50 μM) stimulated, cpds. 667-751
`Cc1oc2ccc(OCc3ccccn3)cc2c1C(=O)NC1(CO)CCCNC1=O` (single isomer, unassigned) [719 - En 1] gave an IC50 of at most 1000 nM.
For `COc1ncccc1COc1ccc2oc(C)c(C(=O)NC(C)(CO)C(N)=O)c2c1` (single isomer, unassigned) [720 - En 1], the IC50 was at most 1000 nM.
With `Cc1ncc(COc2ccc3oc(C)c(C(=O)NC4(C(N)=O)CCOC4)c3c2)o1` (single isomer, unassigned) [725 - En 1] the IC50 was at most 1000 nM.
For `Cc1ncsc1COc1ccc2oc(C)c(C(=O)NC3(CO)CCNC3)c2c1` (single isomer, unassigned) [728 - En 1], the IC50 was 1000 to 20000 nM.
`Cc1ncsc1COc1ccc2oc(C)c(C(=O)NC3(CO)CCNC3)c2c1` (single isomer, unassigned) [728 - En 2] showed an IC50 of at most 1000 nM.
`Cc1ncsc1COc1ccc2oc(C)c(C(=O)NC(Cn3cncn3)C(N)=O)c2c1` (single isomer, unassigned) [729 - En 1] gave an IC50 of at most 1000 nM.
Molecule `Cc1ncsc1COc1ccc2oc(C)c(C(=O)NC(Cn3cncn3)C(N)=O)c2c1` (single isomer, unassigned) [729 - En 2] has an IC50 of at most 1000 nM.
`Cc1oc2ccc(OCc3c[nH]nc3C(F)(F)F)cc2c1C(=O)NC1(CO)CCCNC1=O` (single isomer, unassigned) [731 - En 1] gave an IC50 of at most 1000 nM.
In the case of `Cc1oc2ccc(OCc3ccnn3C)cc2c1C(=O)NC1(CO)CCCNC1=O` (single isomer, unassigned) [732 - En 1], the IC50 is reported as at most 1000 nM.
For `Cc1oc2ccc(OCc3ccnn3C)cc2c1C(=O)NC1(CO)CCNC1=O` (single isomer, unassigned) [733 - En 1], the IC50 was at most 1000 nM.
Work on `Cc1oc2ccc(OCc3cccnn3)cc2c1C(=O)NC1(CO)CCNC1=O` (single isomer, unassigned) [734 - En 1] yielded an IC50 of at most 1000 nM.
Work on `Cc1oc2ccc(OCc3cccnn3)cc2c1C(=O)NC1(CO)CCNC1=O` (single isomer, unassigned) [734 - En 2] yielded an IC50 of 1000 to 20000 nM.
`Cc1oc2ccc(OCc3ccc(F)cn3)cc2c1C(=O)NC1(CO)CCNC1=O` (single isomer, unassigned) [735 - En 1] was tested, and the IC50 was at most 1000 nM.
`Cc1oc2ccc(OCc3cccnc3C(F)F)cc2c1C(=O)NC1(CO)CCNC1=O` (single isomer, unassigned) [736 - En 1] was tested, and the IC50 was at most 1000 nM.
Molecule `Cc1oc2ccc(OCc3cccnc3C(F)F)cc2c1C(=O)NC1(CO)CCCNC1=O` (single isomer, unassigned) [737 - En 1] has an IC50 of at most 1000 nM.
Molecule `Cc1oc2ccc(OCc3ccnn3CC(F)F)cc2c1C(=O)NC1(C(N)=O)CCOC1` (single isomer, unassigned) [740 - En 1] has an IC50 of at most 1000 nM.
`Cc1oc2ccc(OCc3ccnn3CC(F)F)cc2c1C(=O)NC1(C(N)=O)CCOC1` (single isomer, unassigned) [740 - En 2] gave an IC50 of at most 1000 nM.
